Measurements reported in patent US10226426B2, “Suspension containing nano-cocrystal and manufacturing method” (TAKEDA PHARMACEUTICAL COMPANY LIMITED, priority 2015, dated 2019).
In brackets after ≈: the same amount, converted by molar mass.

What was measured:
[1] = Powder X-ray diffractometry, crystallinity by the Hermans method; type: physicochemical
Procedure: To be specific, powder samples (about 2 mg) were placed on a silicon sample plate, and scanned between 2 and 35 degrees (2θ) at a scan speed of 6 degrees/min. Powder samples such as nanoized FSD and the like were prepared by centrifuging suspensions thereof by cooling centrifugal machine Himac CR21G (manufactured by Hitachi Koki Co., Ltd.) at 19,000 rpm for 10 min and drying same. In addition, from the obtained X-ray diffraction patterns by the Hermans method, crystallinity before and after wet grinding was calculated.

[2] = value at 25° C. and 1 atm; cited from earlier work

Row | Structure (SMILES) | crystallinity before wet grinding [1] | diffraction pattern before and after wet grinding (dissociation of cocrystal) ([1]; wet grinding in 0.5% (w/v) HPMC and 0.02% (w/v) SDS) | water solubility [2] | formation of hydrate by wet grinding ([1]; diffraction pattern after wet grinding)
1 | NS(=O)(=O)c1cc(C(=O)O)c(NCc2ccco2)cc1Cl [Furosemide, furosemide] | 85% | did not show a marked difference in the diffraction pattern before and after the wet grinding | – | –
2 | O=C1NS(=O)(=O)c2ccccc21 [Saccharin, saccharin] | – | – | 3.4 mg/mL (≈ 18600 µM) | –
3 | NC(=O)N1c2ccccc2C=Cc2ccccc21 [anhydrous carbamazepine, carbamazepine] | 88% | – | 0.22 mg/mL (≈ 931 µM) | formation of CBZ dihydrate could be confirmed
4 | COc1ccc2c(c1)c(CC(=O)O)c(C)n2C(=O)c1ccc(Cl)cc1 [indomethacin] | 81% | – | 0.0095 mg/mL (≈ 26.6 µM) | –
5 | NC(N)=O [urea] | – | – | 1,000 mg/mL | –
